The values that follow come from patent EP2711366A1, “Cationic triphenylamine derivatives activable by visible and Infra Red light for inducing and imaging apoptosis in cancer cells” (Institut Curie, priority 2012, dated 2014).

In data set [1] the test system is PARP (poly-ADP ribose polymerase) cleavage in HeLa cells. Put plainly: PARP cleavage by Western blot and cell morphology after illumination. It is filed as cell-based. The following applies: 2 µM, 2h, 17 mW.cm^-2, 452 nm filter. As for the experimental part: HeLa cells were plated in 6-well plates (4.10^5 cells/well) and incubated with 2 µM TP2Py for 2h at 37°C. After varying illumination times (up to 90min) at 17 mW.cm^-2 (Mercury lamp (130W; 380-600nm) + excitation filter centered at 452 nm (± 45 nm)), cells were collected by scraping, washed once in ice-cold PBS, treated with lysis buffer (1% Nonidet P-40, 20 mM Tris pH 8.0, 137 mM NaCl, 10% glycerol (v/v)) supplemented with 1 mM phenyl-methylsulfonyl fluoride, 1 mM sodium orthovanadate and anti-protease cocktail (Complete, Boehringer Mannheim, Germany) for 20 min on ice and further centrifuged at 10000g for 10 min. Protein concentrations were determined using the bicinchoninic acid method (micro BCA, Pierce, USA). 40µg of detergent soluble proteins were separated by SDS-PAGE under reducing conditions followed by Western blotting. Membranes were first incubated overnight at 4°C with the rabbit primary polyclonal antibody anti-PARP (Cell Signaling Technology). Membranes were then probed with horseradish peroxidase-labelled anti-rabbit IgG (dilution, 1/2000) (Dakocytomation). Detection was based on a chemiluminescence detection system (GE Healthcare, Orsay, France). […]
The cleavage of PARP, a hallmark of apoptosis, was assessed by Western blot using an anti-PARP antibody that recognizes both the entire and cleaved PARP (Fig. 11).
A general note: Immunoblotting shows a protein as a band on a membrane.

A further data set has as its system DNA. The following applies: cited from earlier work.
Data set [2] relates to ROS (reactive oxygen species) in MCF7 cells. The data set is described as follows: Fluorescence detection of ROS generation with H2DCF-DA probe, flow cytometry. It is filed as cell-based. The following applies: 2µM, 2 hours. As for the experimental part: CF-7 cells were plated in 12-well plates (2.10^5 cells/well) and incubated with 2µM of TP2Py for 2h at 37°C. After a time illumination of 30 min [Irradiance, 40mW/cm^2. The source of excitation was a Mercury lamp (130 W; 380-600 nm) with an excitation filter centered at 452 nm (± 45 nm)], cells were gently scraped, individualized in PBS-EDTA (10 mM) and stained with 10µM of […] (H2DCF-DA) (Molecular Probe, USA) for 45 min. Cells were then washed in ice-cold HEPES buffer before analysis. Fluorescence signals of H2DCF-DA and TP2Py were measured by FACSCalibur flow cytometer using FL1 and FL2 detectors, respectively.
Different experiments are summarized below: • Control MCF7 cells were treated with DMSO (1%) (Fig.13A) without light exposure; • MCF7 cells were plated and treated with H2DCF-DA and 2µM TP2Py for 2 hours without light exposure (Fig.13B); • MCF7 cells were plated and treated with H2DCF-DA and 2µM TP2Py for 2 hours after a time illumination of 30 min (Fig.13C)
The horizontal (FL1-H) and vertical (FL2-H) axes correspond to fluorescence signals of H2DCF-DA and TP2Py, respectively.
(In general: Flow cytometry measures light scatter and fluorescence of single cells or particles in a stream.)

The next data set has as its system living MCF-7 cells. The data set is described as follows: Cell death induced by two-photon excitation (multiphoton microscopy). It is filed as cell-based. The following applies: two-photon λex 860nm, irradiance 1.25W/cm^2. As for the experimental part:
A similar set up was used for two-photon images except that the excitation source was a 80-MHz mode-locked Mai Tai® Ti:Sapphire tunable laser (720-920 nm, 100 fs laser pulse; Spectra Physics, Mountain View, California) tuned to 860 nm.
Living MCF-7 cells were treated with 2 µM of TP2Py for 2 hours, exposed to two-photon excitation and simultaneously observed by multiphoton microscopy [using- a pulsed IR laser source for excitation Mai Tai, Spectra Physics, λex = 860nm; irradiance, 1.25W/cm^2, emission slit setting: 560-720nm].

With `C[n+]1ccc(/C=C/c2ccc(N(c3ccccc3)c3ccc(/C=C/c4cc[n+](C)cc4)cc3)cc2)cc1` [TP2Py], the “illumination time after which PARP cleavage was detected” value in data set [1] came to 60 min. Moreover, in the data set on DNA (Allains et al. 2007), the “maximum of emission in vitro, DNA-bound” value is recorded as 634 nm. In the data set with DNA (b156 attributes 634 nm to DNA-bound TP2Py in vitro (Allains et al. 2007)), the “λmax,emission” value is recorded as 634 nm. Moreover, in the data set on HeLa cells, the “dark toxicity (concentration below which negligible)” value is ≥ 50 µM. For the same molecule, the “HMFI population (H2DCF-DA positive, TP2Py positive)” value turned out to be 15.4% in data set [2] (30 min illumination, 40mW/cm^2) and 4.9% in data set [2] (without light exposure). In addition, the “start of re-localization into the nucleus after the first excitation” value with living MCF-7 cells (2 µM, 2 hours) lay within 5 to 15 min. The light dose entry with living MCF-7 cells was “≈ 300 J/cm^2”.
